Columns and labels:
[1] = system: EV71 (SHZH98); assay: Time course assay (CPE) in SK-N-SH cells; format: cell-based, enterovirus 71; settings: for Reduction of virus-induced CPE, time course: CPE at 48 h
Protocol: Figure 1 The chemical structure of formononetin and time course assay. (A) The illustration of the protocol of viral adsorption and treatment with formononetin and pirodavir. SK-N-SH cells were infected with 80 pfu/well of EV71 (SHZH98). Formononetin (9.21 μM) and pirodavir (0.84 μM) was added at the indicated times, respectively. […] The cytopathic effect (CPE) assay was shown. (C) The chemical structure of formononetin.
The antiviral activity of formononetin was examined at different time periods before and after viral infection as shown in Figure 1A. Briefly, cells (3 × 10^4 cells/well) were seeded and incubated for 16 h. The cell monolayer was then infected with EV71 of 80 pfu/well. Different concentrations of formononetin were supplemented into cells following the protocol. Cells were then incubated for another 48 h and assayed with CPE assay.

[2] = system: EV71 VP1 RNA; assay: One-step qRT-PCR of EV71 VP1 RNA in SK-N-SH cells; format: cell-based, enterovirus 71; settings: EV71 SHZH98 480 pfu/well, 24 h treatment
Text: Figure 2 The antiviral effect of formononetin and pirodavir against EV71 in SK-N-SH cells. (A) Formononetin and pirodavir reduced the expression of EV71 VP1 protein in SK-N-SH cells by western blot assay. (B) Formononetin and pirodavir reduced the expression of EV71 VP1 protein in SK-N-SH cells by immunofluorescence assay. Cells were examined using a fluorescence microscopy (×100). (C) Formononetin and pirodavir reduced the expression of EV71 VP1 RNA by one-step qRT-PCR assay. *P < 0.001 ^# P < 0.05.
SK-N-SH cells (9 × 10^5cells/well) were plated into 6-well culture plates for incubation of 16 h. The medium was removed and cells were infected with EV71 (SHZH98) of 480 pfu/well. After 2 h, various concentrations of formononetin were supplemented for incubation of another 24 h. The total RNA of the infected cells was extracted using the RNeasy Mini kit (QIAGEN) according to the manufacturer’s instructions. The one-step qRT-PCR was performed with SuperScript III Platinum SYBR Green One-step RT PCR Kit (Invitrogen) using the ABI 7500 Fast Real-Time PCR system (Applied Biosystems). The mRNA expression of EV71 VP1 was detected with sense primer 5’-[…]-3’ and antisense primer 5’-[…]-3’ targeting a conserved region of the VP1 gene. The β-actin mRNA was detected using sense primers 5’-TGACGGGGT CACCCACA CTGTGCCCATCTA-3’ and antisense primer 5’-CTAGAAGCATTTG CGGTGGACG ATG-3’.

[3] = system: ERK; assay: Western blot of EV71-induced phosphorylation of ERK in SK-N-SH cells; format: cell-based; settings: pretreatment 24 h, formononetin 14.91 μmol/L, pirodavir 1.08 μmol/L, EV71 15 min
Protocol: Figure 3 Formononetin but not pirodavir reduces the phosphorylation of ERK (A), p38 (B), and JNK (C) induced by EV71 infection. SK-N-SH cells (9 × 10^5 cells/well) were plated into 6-well culture plates. The cells were then pretreated with formononetin (14.91 μmol/L) and pirodavir (1.08 μmol/L), respectively. After 24 h, the cells were mock-infected or infected with 4.8 × 10^5 pfu/well of EV71 (SHZH98) for 15 min (A), 10 min (B), and 30 min (C), respectively. The cells were harvested and ERK (A) p-ERK (A), p38 (B), p-p38 (B), JNK (C), and p-JNK (C) were detected by western blot.
Cells were lysed in the M-PER mammalian protein extraction reagent (Thermo, Rockford, IL) containing halt protease inhibitor single-use cocktail (Thermo). The protein concentration was determined by the BCA reagents (Thermo). About 10 μg proteins were denatured and applied to sodium dodecyl sulfate-polyacrylamide gel electrophoresis (SDS-PAGE). The electrophoresis products were transferred to a polyvinyl idenefluoride (PVDF) film and PVDF membranes were then incubated at room temperature with specific primary antibody. After a standard washing, membranes were incubated with horse radish peroxidase (HRP)-labeled secondary antibody. The assay developed using a chemiluminescent substrate. […]

[4] = system: COX-2; assay: Western blot of EV71-induced COX-2 expression in SK-N-SH cells; format: cell-based; settings: formononetin 14.91 μmol/L, pirodavir 1.08 μmol/L, 24 h
Protocol: Figure 4 Formononetin could inhibit EV71-induced COX-2 expression and PGE 2 production. (A) Formononetin but not pirodavir can reduce the expression of COX-2 induced by EV71 infection. SK-N-SH cells were mock-infected or infected with 480 pfu/well of EV71 (SHZH98) for 2 h. The cells were then treated with formononetin (14.91 μmol/L) and pirodavir (1.08 μmol/L), respectively, for 24 h. The cells were harvested and EV71-VP1 and COX-2 were examined by western blot. (B) Formononetin but not pirodavir can reduce the release of PGE2 stimulated by EV71 infection. SK-N-SH cells were pretreated with formononetin (14.91 μmol/L) or pirodavir (1.08 μmol/L) for 24 h. The cells were infected with 4.8 × 10^5 pfu/well of EV71 (SHZH98). At 24 h p.i., the culture supernatants were harvested for PGE2 release assay. Cells were lysed in the M-PER mammalian protein extraction reagent (Thermo, Rockford, IL) containing halt protease inhibitor single-use cocktail (Thermo). The protein concentration was determined by the BCA reagents (Thermo). About 10 μg proteins were denatured and applied to sodium dodecyl sulfate-polyacrylamide gel electrophoresis (SDS-PAGE). The electrophoresis products were transferred to a polyvinyl idenefluoride (PVDF) film and PVDF membranes were then incubated at room temperature with specific primary antibody. […]

COc1ccc(-c2coc3cc(O)ccc3c2=O)cc1 [Formononetin]
Reduction of virus-induced CPE, time course ([1]; formononetin 9.21 μM added at 24 and 12 h before, and 0 to 6 h after EV71 infection): able to effectively reduce virus-induced CPE | Reduction of virus-induced CPE, time course ([1]; formononetin 9.21 μM added at −1, 9, and 12 h of EV71 infection): did not exert this effect | Levels of EV71 RNA (RT-qPCR) [2]: dose-dependently decreased | EV71-stimulated phosphorylation of ERK [3]: significantly attenuated | EV71-stimulated COX-2 expression [4]: inhibited

CCOC(=O)c1ccc(OCCC2CCN(c3ccc(C)nn3)CC2)cc1 [Pirodavir, reference compound]
Reduction of virus-induced CPE, time course: effective time of addition ([1]; pirodavir 0.84 μM, effective 0–9 h p.i., not before or during the infection): functioned only after viral infection (0–9 h p.i.) | Levels of EV71 RNA (RT-qPCR) [2]: decrease | EV71-stimulated phosphorylation of ERK [3]: not | EV71-stimulated COX-2 expression [4]: not

From PMC4351682, “Formononetin inhibits enterovirus 71 replication by regulating COX- 2/PGE2 expression” (Virology Journal, 2015)
